How the values were obtained:
HLAs = test: HLA expression (positive rate) of tumor cells treated with hydroxychloroquine; assay type: cell-based, human; conditions: compound group vs control group
[1] = test system: primary tumor cells such as pancreatic tumor cells; test: Killing effect of TILs on primary tumor cells treated with hydroxychloroquine; assay type: cell-based, human
Description: In a specific embodiment, TILs are obtained from tumor samples of pancreatic cancer patients with reference to the method disclosed in CN110785486A (which is incorporated herein by reference in its entirety). Primary tumor cells such as pancreatic tumor cells are treated with the TILs alone (control group) or in combination with a compound of Formula (I) (e.g., hydroxychloroquine) (compound group). The cells of the compound group are treated with different concentrations of the compound of Formula (I) (e.g., hydroxychloroquine) for more than 12 hours (e.g., 24 hours). Under different effect-to-target ratios were the killing effects of TILs on target cells in the control group and the compound group detected.

type I HLA (HLA-A, B, C) [2] = test: Type I HLA on surface of tumor cells of T008 PDX mice, flow cytometry MFI; assay type: in vivo, mouse; conditions: 60 mg/kg/day i.p. q.d. 30 days, vs PBS control
Description: (§1) PDX mouse models derived from tissue T008 and tissue T018 were established according to the method of example 3. The model animals were grouped according to the following Table 7 in which mice were treated with hydroxychloroquine alone. Hydroxychloroquine used in the experiment was purchased from MCE (Cat. No.: HY-W031727).
(§2) Mice were sacrificed 30 days after treatment, and tumor tissues were taken out and digested into a single-cell suspension with dispase. After staining with a general HLA-A, B, C flow cytometric antibody (Biolegend, PE-anti-human HLA-A, B, C Antibody Cat. NO. 311406), the phenotypes and fluorescence intensity (MFI) were measured by flow cytometry, and the MFI values of different groups of HLA-type I positive cells were counted and compared.

type I HLA (HLA-A, B, C) [3] = test: Type I HLA on surface of tumor cells of T018 PDX mice, flow cytometry MFI; assay type: in vivo, mouse; conditions: 60 mg/kg/day i.p. q.d. 30 days, vs PBS control
Description: as §1, §2

CCN(CCO)CCCC(C)Nc1ccnc2cc(Cl)ccc12 (centres unmarked) [hydroxychloroquine]
positive rate of the cells (HLA expression) (HLAs): significantly higher
concentration of hydroxychloroquine at which the effect on TIL killing is more clear ([1]; compound group vs control group (TILs alone)): above 20 μM
killing effects of TILs on target cells ([1]; primary tumor cells treated with hydroxychloroquine for more than 12 hours (e.g., 24 hours), different effect-to-target ratios, vs TILs alone): more effectively killed by TILs
expression levels of type I HLA on the surface of tumor cells (type I HLA (HLA-A, B, C) [2]): significantly increased
expression levels of type I HLA on the surface of tumor cells (type I HLA (HLA-A, B, C) [3]): significantly increased
